These results are taken from ChEMBL document CHEMBL4118098, “Discovery of DS28120313 as a potent orally active hepcidin production inhibitor: Design and optimization of novel 4,6-disubstituted indazole derivatives” (Bioorg Med Chem Lett, 2017).

The target of series [1] is Serine/threonine-protein kinase BRSK1 (Homo sapiens) (UniProt Q8TDC3). Description: Inhibition of BRSK1 (unknown origin) at 0.164 uM relative to control.
The target in series [2] is Proto-oncogene tyrosine-protein kinase Src (Homo sapiens) (UniProt P12931). Description: Inhibition of SRC (unknown origin) at 0.164 uM relative to control.
The test system of series [3] is Fibroblast growth factor receptor 2 (Homo sapiens), P21802 [N549H]. In words: Inhibition of FGFR2 N549H mutant (unknown origin) at 0.164 uM.
The subject of series [4] is Epidermal growth factor receptor (Homo sapiens), P00533 [L858R,T790M]. Description: Inhibition of EGFR T790M/L858R double mutant (unknown origin) at 0.164 uM relative to control.
For series [5], the target named is Serine/threonine-protein kinase 10 (Homo sapiens) (UniProt O94804). Description: Inhibition of LOK (unknown origin) at 0.164 uM relative to control.
Series [6] addresses Maternal embryonic leucine zipper kinase (Homo sapiens) (UniProt Q14680). In words: Inhibition of MELK (unknown origin) at 0.164 uM relative to control.
For series [7], the target named is Proto-oncogene tyrosine-protein kinase receptor Ret (Homo sapiens) (UniProt P07949). In words: Inhibition of RET (unknown origin) at 0.164 uM relative to control.
Series [8] addresses Tyrosine-protein kinase SYK (Homo sapiens) (UniProt P43405). Description: Inhibition of SYK (unknown origin) at 0.164 uM relative to control.
Series [9] addresses Ephrin type-B receptor 4 (Homo sapiens) (UniProt P54760). Description: Inhibition of EPHB4 (unknown origin) at 0.164 uM relative to control.
In series [10] the target is MAP kinase-activated protein kinase 3 (Homo sapiens) (UniProt Q16644). Description: Inhibition of MAPKAPK3 (unknown origin) at 0.164 uM relative to control.
Series [11] in a line: Lipophilicity, log D of the compound. Format: physicochemical. The following applies: octanol/water.
Series [12] concerns the target Serine/threonine-protein kinase 4 (Homo sapiens) (UniProt Q13043). Description: Inhibition of MST1 (unknown origin) at 0.164 uM relative to control.
In series [13] the target is MAP kinase-interacting serine/threonine-protein kinase 1 (Homo sapiens) (UniProt Q9BUB5). In words: Inhibition of MNK1 (unknown origin) at 0.164 uM relative to control.
Series [14] addresses T1, cGMP-dependent protein kinase 1 (Homo sapiens) (UniProt Q13976).
T1 sequence (whole entry): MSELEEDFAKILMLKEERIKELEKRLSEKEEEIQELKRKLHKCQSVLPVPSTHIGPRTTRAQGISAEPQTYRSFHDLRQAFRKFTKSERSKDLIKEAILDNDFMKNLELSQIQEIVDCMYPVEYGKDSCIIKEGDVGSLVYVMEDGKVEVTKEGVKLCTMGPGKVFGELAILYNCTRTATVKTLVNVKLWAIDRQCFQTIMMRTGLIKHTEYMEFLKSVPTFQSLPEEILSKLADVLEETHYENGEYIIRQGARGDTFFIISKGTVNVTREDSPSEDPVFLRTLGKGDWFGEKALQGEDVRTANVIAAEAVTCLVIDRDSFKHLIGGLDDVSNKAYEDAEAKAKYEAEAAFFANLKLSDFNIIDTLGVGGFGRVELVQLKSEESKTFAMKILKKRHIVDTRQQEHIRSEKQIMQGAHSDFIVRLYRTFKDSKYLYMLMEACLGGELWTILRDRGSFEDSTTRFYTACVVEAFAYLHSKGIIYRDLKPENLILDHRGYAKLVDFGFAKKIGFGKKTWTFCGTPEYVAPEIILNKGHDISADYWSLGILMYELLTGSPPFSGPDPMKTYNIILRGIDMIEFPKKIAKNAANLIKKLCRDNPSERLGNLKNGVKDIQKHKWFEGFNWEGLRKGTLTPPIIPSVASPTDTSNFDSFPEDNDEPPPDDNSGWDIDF
Description: Inhibition of PKG-alpha (unknown origin) at 0.45 uM relative to control.

In series [15] the target is Epidermal growth factor receptor (Homo sapiens) (UniProt P00533). In words: Inhibition of EGFR (unknown origin) at 0.19 uM relative to control.
In series [16] the test system is Proto-oncogene tyrosine-protein kinase receptor Ret (Homo sapiens), P07949 [M918T]. Description: Inhibition of RET M918T mutant (unknown origin) at 0.19 uM relative to control.
For series [17], the target named is Hepatocyte growth factor receptor (Homo sapiens) (UniProt P08581). Description: Inhibition of MET (unknown origin) at 0.19 uM relative to control.
The target in series [18] is Serine/threonine-protein kinase Chk1 (Homo sapiens) (UniProt O14757). In words: Inhibition of CHK1 (unknown origin) at 0.19 uM relative to control.
Serine/threonine-protein kinase Chk1 (Homo sapiens), sequence (O14757 whole entry): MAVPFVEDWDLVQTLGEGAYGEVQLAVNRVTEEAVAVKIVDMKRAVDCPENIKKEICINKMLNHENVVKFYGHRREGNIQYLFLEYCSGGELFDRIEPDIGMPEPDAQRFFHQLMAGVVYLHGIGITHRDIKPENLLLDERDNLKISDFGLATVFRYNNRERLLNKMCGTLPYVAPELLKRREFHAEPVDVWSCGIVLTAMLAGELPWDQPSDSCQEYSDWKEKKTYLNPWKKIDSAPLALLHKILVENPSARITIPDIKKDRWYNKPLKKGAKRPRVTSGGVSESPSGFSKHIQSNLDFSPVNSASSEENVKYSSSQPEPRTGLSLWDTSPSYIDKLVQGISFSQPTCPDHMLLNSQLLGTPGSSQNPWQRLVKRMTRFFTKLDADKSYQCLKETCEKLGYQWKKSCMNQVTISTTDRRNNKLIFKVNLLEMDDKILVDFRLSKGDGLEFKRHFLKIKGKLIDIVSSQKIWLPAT
For series [19], the target named is Homeodomain-interacting protein kinase 2 (Homo sapiens) (UniProt Q9H2X6). Description: Inhibition of HIPK2 (unknown origin) at 0.19 uM relative to control.
The target of series [20] is Protein kinase C delta type (Homo sapiens) (UniProt Q05655). Description: Inhibition of PKC-delta (unknown origin) at 0.19 uM relative to control.
In series [21] the target is Receptor-type tyrosine-protein kinase FLT3 (Homo sapiens) (UniProt P36888). In words: Inhibition of FLT3 (unknown origin) at 0.19 uM relative to control.
The target in series [22] is Ribosomal protein S6 kinase alpha-1 (Homo sapiens) (UniProt Q15418). In words: Inhibition of RSK1 (unknown origin) at 0.19 uM relative to control.
Series [23] deals with Dual specificity tyrosine-phosphorylation-regulated kinase 1B (Homo sapiens) (UniProt Q9Y463). Description: Inhibition of DYRK1B (unknown origin) at 0.19 uM relative to control.
Series [24] addresses Ephrin type-A receptor 1 (Homo sapiens) (UniProt P21709). In words: Inhibition of EPHA1 (unknown origin) at 0.19 uM relative to control.
The target in series [25] is Tyrosine-protein kinase Lck (Homo sapiens) (UniProt P06239). Description: Inhibition of LCK (unknown origin) at 0.19 uM relative to control.
Tyrosine-protein kinase Lck (Homo sapiens), sequence (P06239 2-509 limits assumed): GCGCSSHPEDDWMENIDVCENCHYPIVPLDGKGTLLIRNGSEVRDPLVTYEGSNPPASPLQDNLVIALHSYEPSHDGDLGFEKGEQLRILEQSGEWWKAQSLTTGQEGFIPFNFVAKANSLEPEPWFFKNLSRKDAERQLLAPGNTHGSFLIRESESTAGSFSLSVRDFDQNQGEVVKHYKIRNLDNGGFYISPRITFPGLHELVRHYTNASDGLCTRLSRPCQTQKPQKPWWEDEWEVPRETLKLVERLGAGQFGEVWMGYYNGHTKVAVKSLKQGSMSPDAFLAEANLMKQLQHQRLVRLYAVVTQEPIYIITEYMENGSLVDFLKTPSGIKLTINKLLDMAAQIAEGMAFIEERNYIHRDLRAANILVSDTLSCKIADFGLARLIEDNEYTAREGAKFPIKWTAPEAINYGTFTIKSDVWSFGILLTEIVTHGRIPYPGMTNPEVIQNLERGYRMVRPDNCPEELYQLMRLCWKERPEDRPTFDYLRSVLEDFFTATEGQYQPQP
Series [26] deals with Phosphorylase b kinase gamma catalytic chain, liver/testis isoform (Homo sapiens) (UniProt P15735). Description: Inhibition of PhKg2 (unknown origin) at 0.19 uM relative to control.
Series [27] deals with Epidermal growth factor receptor (Homo sapiens), P00533 [L858R,T790M]. In words: Inhibition of EGFR T790M/L858R double mutant (unknown origin) at 0.19 uM relative to control.
Epidermal growth factor receptor (Homo sapiens), P00533 [L858R,T790M], sequence (P00533 whole entry T790M/L858R, looked up): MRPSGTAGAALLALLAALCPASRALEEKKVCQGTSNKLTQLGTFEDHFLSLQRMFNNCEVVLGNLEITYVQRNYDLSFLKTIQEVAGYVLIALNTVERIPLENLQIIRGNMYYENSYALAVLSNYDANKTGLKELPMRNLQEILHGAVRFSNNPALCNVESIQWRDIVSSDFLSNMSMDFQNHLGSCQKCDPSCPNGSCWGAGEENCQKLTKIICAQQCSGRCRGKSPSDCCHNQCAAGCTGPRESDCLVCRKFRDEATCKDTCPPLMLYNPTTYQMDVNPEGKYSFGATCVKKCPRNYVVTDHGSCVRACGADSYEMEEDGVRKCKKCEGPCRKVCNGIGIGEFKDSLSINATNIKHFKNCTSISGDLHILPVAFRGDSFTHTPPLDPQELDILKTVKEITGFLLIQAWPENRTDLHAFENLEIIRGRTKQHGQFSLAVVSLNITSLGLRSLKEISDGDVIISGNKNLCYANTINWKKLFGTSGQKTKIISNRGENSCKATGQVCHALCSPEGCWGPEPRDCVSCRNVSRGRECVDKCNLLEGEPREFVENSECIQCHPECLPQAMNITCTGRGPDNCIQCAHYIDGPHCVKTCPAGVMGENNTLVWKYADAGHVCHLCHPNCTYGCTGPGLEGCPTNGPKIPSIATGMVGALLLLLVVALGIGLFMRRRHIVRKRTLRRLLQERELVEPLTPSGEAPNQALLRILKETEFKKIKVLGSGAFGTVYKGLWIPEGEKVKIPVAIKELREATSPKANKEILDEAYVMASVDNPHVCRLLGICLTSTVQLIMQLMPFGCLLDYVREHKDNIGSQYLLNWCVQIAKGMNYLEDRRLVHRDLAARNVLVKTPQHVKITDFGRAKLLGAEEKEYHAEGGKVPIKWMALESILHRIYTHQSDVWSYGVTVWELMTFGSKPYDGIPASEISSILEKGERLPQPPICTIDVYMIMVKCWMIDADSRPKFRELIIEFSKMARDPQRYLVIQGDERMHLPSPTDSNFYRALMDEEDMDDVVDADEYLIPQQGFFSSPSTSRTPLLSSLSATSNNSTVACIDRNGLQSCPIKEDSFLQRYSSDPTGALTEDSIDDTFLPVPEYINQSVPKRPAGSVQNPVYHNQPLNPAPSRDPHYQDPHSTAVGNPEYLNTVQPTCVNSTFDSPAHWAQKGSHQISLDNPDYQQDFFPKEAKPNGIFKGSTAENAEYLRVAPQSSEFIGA
For series [28], the target named is Serine/threonine-protein kinase DCLK2 (Homo sapiens) (UniProt Q8N568). In words: Inhibition of DCAMKL2 (unknown origin) at 0.19 uM relative to control.
Series [29] deals with Dual specificity tyrosine-phosphorylation-regulated kinase 3 (Homo sapiens) (UniProt O43781). In words: Inhibition of DYRK3 (unknown origin) at 0.19 uM relative to control.
Dual specificity tyrosine-phosphorylation-regulated kinase 3 (Homo sapiens), sequence (O43781 whole entry): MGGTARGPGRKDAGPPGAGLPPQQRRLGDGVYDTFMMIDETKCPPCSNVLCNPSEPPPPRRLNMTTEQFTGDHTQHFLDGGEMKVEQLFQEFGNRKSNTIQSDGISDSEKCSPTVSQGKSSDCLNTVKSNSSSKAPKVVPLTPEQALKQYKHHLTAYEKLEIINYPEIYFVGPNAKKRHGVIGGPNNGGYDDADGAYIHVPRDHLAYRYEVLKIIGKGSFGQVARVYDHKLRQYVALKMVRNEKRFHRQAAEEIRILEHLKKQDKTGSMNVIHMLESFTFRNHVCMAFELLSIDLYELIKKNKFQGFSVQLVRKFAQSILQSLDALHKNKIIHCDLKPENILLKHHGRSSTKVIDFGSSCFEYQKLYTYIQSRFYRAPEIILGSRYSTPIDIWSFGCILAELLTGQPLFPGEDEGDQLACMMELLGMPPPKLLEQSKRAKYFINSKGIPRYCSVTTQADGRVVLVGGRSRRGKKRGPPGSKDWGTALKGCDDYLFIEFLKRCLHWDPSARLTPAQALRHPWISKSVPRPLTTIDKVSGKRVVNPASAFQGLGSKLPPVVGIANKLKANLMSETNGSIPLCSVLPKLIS
Series [30] concerns the target Cyclin-dependent kinase 2 (Homo sapiens) (UniProt P24941). In words: Inhibition of CDK2 (unknown origin) at 0.19 uM relative to control.
Series [31] addresses Dual specificity protein kinase CLK3 (Homo sapiens) (UniProt P49761). Description: Inhibition of CLK3 (unknown origin) at 0.19 uM relative to control.

Serine/threonine-protein kinase BRSK1 (Homo sapiens), sequence (Q8TDC3 whole entry): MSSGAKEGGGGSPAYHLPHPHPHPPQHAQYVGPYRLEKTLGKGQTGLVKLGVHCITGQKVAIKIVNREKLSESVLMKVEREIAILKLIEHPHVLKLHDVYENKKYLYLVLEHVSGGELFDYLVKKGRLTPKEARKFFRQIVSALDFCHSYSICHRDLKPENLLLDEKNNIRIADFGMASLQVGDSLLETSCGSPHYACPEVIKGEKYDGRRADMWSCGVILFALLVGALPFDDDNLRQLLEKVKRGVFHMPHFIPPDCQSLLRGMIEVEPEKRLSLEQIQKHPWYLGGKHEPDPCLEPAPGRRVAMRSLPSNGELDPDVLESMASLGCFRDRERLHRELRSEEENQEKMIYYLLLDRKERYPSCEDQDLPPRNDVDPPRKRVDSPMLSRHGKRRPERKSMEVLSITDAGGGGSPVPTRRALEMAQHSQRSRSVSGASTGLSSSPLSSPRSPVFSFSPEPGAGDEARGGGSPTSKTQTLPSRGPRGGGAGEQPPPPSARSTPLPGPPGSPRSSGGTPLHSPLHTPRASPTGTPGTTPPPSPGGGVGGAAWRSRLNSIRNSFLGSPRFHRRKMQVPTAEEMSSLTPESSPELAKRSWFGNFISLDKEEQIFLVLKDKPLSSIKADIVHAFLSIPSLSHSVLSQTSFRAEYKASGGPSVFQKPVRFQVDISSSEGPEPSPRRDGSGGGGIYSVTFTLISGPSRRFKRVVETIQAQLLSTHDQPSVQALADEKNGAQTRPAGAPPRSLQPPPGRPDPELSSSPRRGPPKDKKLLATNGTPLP
Serine/threonine-protein kinase 4 (Homo sapiens), sequence (Q13043 whole entry): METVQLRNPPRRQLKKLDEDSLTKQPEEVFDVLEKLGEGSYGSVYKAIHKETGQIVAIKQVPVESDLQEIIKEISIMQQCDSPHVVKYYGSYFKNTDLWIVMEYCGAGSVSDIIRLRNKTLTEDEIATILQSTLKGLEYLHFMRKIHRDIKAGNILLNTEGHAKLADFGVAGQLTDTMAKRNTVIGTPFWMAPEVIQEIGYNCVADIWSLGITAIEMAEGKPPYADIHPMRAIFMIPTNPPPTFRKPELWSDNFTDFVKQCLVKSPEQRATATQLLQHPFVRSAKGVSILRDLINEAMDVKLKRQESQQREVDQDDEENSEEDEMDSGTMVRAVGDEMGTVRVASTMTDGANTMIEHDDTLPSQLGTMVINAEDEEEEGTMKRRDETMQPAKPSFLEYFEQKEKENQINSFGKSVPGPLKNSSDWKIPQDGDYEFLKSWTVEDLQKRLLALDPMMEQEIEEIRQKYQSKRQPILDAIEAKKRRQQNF
Maternal embryonic leucine zipper kinase (Homo sapiens), sequence (Q14680 whole entry, looked up): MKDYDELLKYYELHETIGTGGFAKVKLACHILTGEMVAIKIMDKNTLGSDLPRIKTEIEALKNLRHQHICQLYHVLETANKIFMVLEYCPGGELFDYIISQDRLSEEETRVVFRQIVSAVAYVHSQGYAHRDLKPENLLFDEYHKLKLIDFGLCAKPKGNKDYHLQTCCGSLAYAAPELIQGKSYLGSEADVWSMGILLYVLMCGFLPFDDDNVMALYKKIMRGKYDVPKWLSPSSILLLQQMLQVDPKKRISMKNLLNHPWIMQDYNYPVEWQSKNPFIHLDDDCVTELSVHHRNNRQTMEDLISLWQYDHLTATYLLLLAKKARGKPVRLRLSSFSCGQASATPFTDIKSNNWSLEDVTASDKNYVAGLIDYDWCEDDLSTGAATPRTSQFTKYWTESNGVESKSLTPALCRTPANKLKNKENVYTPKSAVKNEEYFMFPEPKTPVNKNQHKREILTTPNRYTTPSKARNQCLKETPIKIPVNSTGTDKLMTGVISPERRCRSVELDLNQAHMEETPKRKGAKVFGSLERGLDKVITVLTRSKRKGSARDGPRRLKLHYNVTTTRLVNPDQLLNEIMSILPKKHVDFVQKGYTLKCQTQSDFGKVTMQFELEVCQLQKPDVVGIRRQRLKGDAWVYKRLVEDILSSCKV

Take `COC(=O)Nc1cc(-c2c(C3CC3)n[nH]c2C)cc2[nH]ncc12`: the inhibition (commonly the change of the read-out against control, counted positive when it falls) in series [1] is -1%; in [2] it was 5.7%; in series [3], -3.3%; in [4] it was 1%; in series [5], 3.7%; in [6] it was 10.7%. In addition, the inhibition was 7.3% in series [7]; 8% in [8]; -2.3% in series [9]; 6.3% in series [10]; -2.3% in [12]; 3.3% in [13]. Moreover, the logD (as a rule, the decadic logarithm of the distribution of all forms, ionised or not, between an organic phase and buffer at a given pH) in [11] stood at 3.1.

Turning to `Cc1n[nH]c(C)c1-c1ccc2c(NC(=O)c3ccc(N4CCN(C)CC4)cc3)n[nH]c2c1`, the inhibition in series [14] is -1.7%.

In the case of `Cc1[nH]nc(C2CC2)c1-c1ccc2c(-c3ccc(N4CCN(C)CC4)nc3)n[nH]c2c1`, the inhibition was -6.7% in [15]; 41% in [16]; 7.3% in [17]; -8.7% in [18]; 2.7% in [19]; 0% in series [20]. Moreover, the inhibition is 77.3% in series [21]; 4.7% in series [22]; 3% in series [23]; 6.3% in series [24]; 26.7% in [25]; -4% in series [26]. Also, the inhibition in series [27] is -1%; in series [28], -1.7%; in [29], 1.7%; in series [30] it was -1.7%; in series [31], -1.3%.
